{
  "source": "paper PMC2010087",
  "about": "“Cytotoxic and clastogenic effects of soluble chromium compounds on mammalian cell cultures” (British Journal of Cancer, 1979)",
  "key": {"CHO cell cultures [1]": {"system": "CHO cell cultures", "format": "cell-based, Chinese hamster", "method": "(§1) MATERIALS AND METHODS Cells.-Cultures of the established pseudo- diploid BHK21 Syrian hamster fibroblast line, and of the established pseudodiploid CHO Chinese hamster ovary fibroblast line were grown at 37?C as monolayers, in Eagle's minimal essential medium supplemented with 10% calf serum. Cultures in glass Petri dishes were maintained in a humidified 5% C02 atmosphere. […] Cell growth was estimated on the basis of the nucleic-acid content (RNA+ DNA) of each culture, deter- mined 5 days after seeding, when controls became confluent. To this purpose nucleotides and nucleic acids were sequentially extracted by differential hydrolyses with perchloric acid (PCA): soluble nucleotides of the intracellular pool were extracted with 5% PCA at 4?C for 30 min, RNA was hydrolysed with 10%/ PCA at 37?C for 1 h, and DNA was hydrolysed with 10% PCA at 70?C for 2 h. Soluble nucleotides and RNA were measured by UV absorption at 260 nm, DNA was measured at 268 nm, with a Hitachi 200-20 double-beam spectrophotometer. In order to label nucleic acids, the cultures were incu- bated with tritiated nucleosides (Radio- chemical Centre, Amersham, England): thy- midine-6-H3 ([3H]-TdR; 2 Ci/mM) and uridine-5-H3 ([3H]-UR; 2-5 Ci/mM) were used at the concentration of 2 µCi/ml. After labelling, nucleotides and nucleic acids were extracted and determined as above, and the radioactivity of liquid samples (0-5 ml) of the different fractions was counted in a Packard Tri-Carb 2425 scintillation counter, using 10 ml of Bray's solution. As stated else- where (Levis et al., 1978a, b) the extraction procedure with PCA allows both quantitative determinations and radioactivity counting of different fractions (soluble nucleotides, RNA and DNA) obtained from the same culture. […] The medium was not changed until the 8th day, when the plates were stained with acetic gentian violet, and scored for survivors. All colonies visible to the naked eye were counted as survivors. Chromosome preparations.-Suspensions of CHO cells were prepared by trypsinization of log-phase cultures and diluted with growth medium in 100mm Petri plates. Each plate received about 8 x 10^5 cells in 10 ml of medium, which was changed 24 h after seeding. At this time 3 x 10^-5 M bromodeoxyuridine (BUdR, Sigma, St Louis, Mo., U.S.A.) was added and the cells were allowed to incor- porate the analogue for two division cycles (30 h). […] The medium was not changed until the cells were collected 30 h later. During the last 4 h of treatment, 0 4 Hg/ml of colchicine (Merck, Darmstadt, Germany) were added. At the end of treatment, metaphase cells were dislodged by gently pipetting the overlaying medium and collected by centrifuging the suspension at 900 rev/min for 5 min. The cell pellet was suspended in 5 ml hypotonic buffer (10% sodium citrate) at 37?C for 10 min and fixed in ethanol/acetic acid (3/1). Fixed cells were heated at 89?C for 10 min in IM NaH2PO4 (pH 8) and stained with Giemsa (Korenberg & Freedlender, 1974). […] Chromium compounds and cell treatments.- Hexavalent chromium (Cr6+) was tested as K2Cr207 (potassium dichromate), K2CrO4 (potassium chromate) and Na2CrO4.4H20 (sodium chromate) (Mallinckrodt, St Louis, Mo., U.S.A.), as Na2Cr2O7.2H20 (sodium dichromate) (Riedel De Haen, Hannover, Germany), as CrO3 (chromic acid) (Merck, Darmstadt, Germany), and as CaCrO4 (cal- cium chromate) (BDH, Poole, England)."}, "CHO cells [2]": {"system": "CHO cells", "assay": "CHO cell survival (macroscopic colonies)", "format": "cell-based, Chinese hamster", "conditions": "seeded in presence of Cr, treated up to 8th day", "method": "MATERIALS AND METHODS Cells.-Cultures of the established pseudo- diploid BHK21 Syrian hamster fibroblast line, and of the established pseudodiploid CHO Chinese hamster ovary fibroblast line were grown at 37?C as monolayers, in Eagle's minimal essential medium supplemented with 10% calf serum. Cultures in glass Petri dishes were maintained in a humidified 5% C02 atmosphere. […] Cell growth was estimated on the basis of the nucleic-acid content (RNA+ DNA) of each culture, deter- mined 5 days after seeding, when controls became confluent. […] Soluble nucleotides and RNA were measured by UV absorption at 260 nm, DNA was measured at 268 nm, with a Hitachi 200-20 double-beam spectrophotometer. […] After labelling, nucleotides and nucleic acids were extracted and determined as above, and the radioactivity of liquid samples (0-5 ml) of the different fractions was counted in a Packard Tri-Carb 2425 scintillation counter, using 10 ml of Bray's solution. As stated else- where (Levis et al., 1978a, b) the extraction procedure with PCA allows both quantitative determinations and radioactivity counting of different fractions (soluble nucleotides, RNA and DNA) obtained from the same culture. […] The medium was not changed until the 8th day, when the plates were stained with acetic gentian violet, and scored for survivors. All colonies visible to the naked eye were counted as survivors. […]"}, "BHK cells": {"system": "BHK cells", "conditions": "chronic exposure", "method": "as §1"}, "CHO cell cultures [3]": {"system": "CHO cell cultures", "method": "as §1"}, "CHO cells [4]": {"system": "CHO cells", "conditions": "30 h, 1.0 ug/ml Cr6+", "method": "as §1"}},
  "note": "Like-named read-outs stand apart in the source and are kept apart here.",
  "data": [
    {"smiles": "[Ca+2].[O]=[Cr](=[O])([O-])[O-]", "note": "[CaCrO4, calcium chromate]", "values": [
      {"measurement": "Cell growth (%)", "setting": "CHO cell cultures [1]", "value": 1, "unit": "%"},
      {"measurement": "RNA/DNA", "setting": "CHO cell cultures [1]", "value": 4.8}
    ]},
    {"smiles": "CC(=O)[O-].CC(=O)[O-].CC(=O)[O-].[Cr+3]", "note": "[Cr(COOCH3)3, chromium acetate]", "values": [
      {"measurement": "50% lethal dose (LD50)", "setting": "CHO cells [2]", "value": 150, "unit": "µg/mL"},
      {"measurement": "Cell growth (%)", "setting": "CHO cell cultures [1]; 5 days in presence of compound, [Cr] 312.0 ug/ml", "value": 1, "unit": "%"},
      {"measurement": "cytotoxic action on cell growth", "setting": "BHK cells", "value": "weakly cytotoxic"}
    ]},
    {"smiles": "[Cl][Cr]([Cl])[Cl]", "note": "[CrCl3, chromium chloride]", "values": [
      {"measurement": "Cell growth (%)", "setting": "CHO cell cultures [1]; 5 days in presence of compound, [Cr] 262.0 ug/ml", "value": 61, "unit": "%"},
      {"measurement": "cytotoxic action on cell growth", "setting": "BHK cells; even at 300 tg/ml Cr3+ (maximum solubility in complete growth medium)", "value": "little or no cytotoxic action"}
    ]},
    {"smiles": "O=S(=O)([O-])[O-].O=S(=O)([O-])[O-].[Cr+3].[K+]", "note": "[CrK(SO4)2, chromium potassium sulphate]", "values": [
      {"measurement": "Cell growth (%)", "setting": "CHO cell cultures [1]; 5 days in presence of compound, [Cr] 209.0 ug/ml", "value": 62, "unit": "%"},
      {"measurement": "RNA/DNA", "setting": "CHO cell cultures [1]; 5 days, [Cr] 209.0 ug/ml", "value": "1-4"},
      {"measurement": "cytotoxic action on cell growth", "setting": "BHK cells", "value": "weakly cytotoxic"}
    ]},
    {"smiles": "[O]=[Cr](=[O])=[O]", "note": "[CrO3, chromic acid]", "values": [
      {"measurement": "Cell growth (%)", "setting": "CHO cell cultures [1]", "value": 2, "unit": "%"}
    ]},
    {"smiles": "[K+].[K+].[O]=[Cr](=[O])([O-])[O][Cr](=[O])(=[O])[O-]", "note": "[K2Cr2O7, potassium dichromate]", "values": [
      {"measurement": "Cell growth (%)", "setting": "CHO cell cultures [1]", "value": 4, "unit": "%"}
    ]},
    {"smiles": "[K+].[K+].[O]=[Cr](=[O])([O-])[O-]", "note": "[K2CrO4, potassium chromate]", "values": [
      {"measurement": "Cell growth (%)", "setting": "CHO cell cultures [1]", "value": 5, "unit": "%"},
      {"measurement": "Sister chromatid exchanges per chromosome", "setting": "CHO cell cultures [3]", "value": "0.50 + 0-01"},
      {"measurement": "Sister chromatid exchanges per metaphase", "setting": "CHO cell cultures [3]", "value": "9-80 + 0-31"}
    ]},
    {"smiles": "[Na+].[Na+].[O]=[Cr](=[O])([O-])[O][Cr](=[O])(=[O])[O-]", "note": "[Na2Cr2O7, sodium dichromate]", "values": [
      {"measurement": "Cell growth (%)", "setting": "CHO cell cultures [1]", "value": 3, "unit": "%"},
      {"measurement": "RNA/DNA", "setting": "CHO cell cultures [1]", "value": "6-9"},
      {"measurement": "increase of chromosome aberrations", "setting": "CHO cells [4]", "value": "about 10 fold"}
    ]},
    {"smiles": "[Na+].[Na+].[O]=[Cr](=[O])([O-])[O-]", "note": "[Na2CrO4, sodium chromate]", "values": [
      {"measurement": "Cell growth (%)", "setting": "CHO cell cultures [1]", "value": 6, "unit": "%"},
      {"measurement": "Sister chromatid exchanges per chromosome", "setting": "CHO cell cultures [3]", "value": "059 + 0-20"},
      {"measurement": "Sister chromatid exchanges per metaphase", "setting": "CHO cell cultures [3]", "value": "10-62 + 0-33"}
    ]}
  ]
}
